One series has as its system bone marrow stem cells. In words: bone marrow stem cell proliferation (XTT). Format: cell-based, C57/BL6 mice. Particulars: for Max amplitude: 7 days, XTT 492 nm; for Min amplitude: blank ± 3× standard deviation; for Max concentration: concentration at maximum amplitude; for EC50 conc: concentration corresponding to 50% of maximum amplitude; for Min concentration: lowest concentration inducing a significant proliferation. From the text:
6-week old male C57/BL6 mice are killed by CO2 inhalation. The hip, femur, tibia and hind leg bones are removed. The marrow is extracted from the bone lumen by injecting Dulbecco's Modified Eagle Medium (DH medium) from the end portions which had been excised. The stem cells are washed and suspended again in DH medium supplemented with 20% foetal calf serum (FCS) The cell concentration is adjusted to 500000 cells/ml.
Products previously dissolved in DH medium supplemented with 20% FCS, amino acids and antibiotics are serially diluted directly into a microtiter plate. The products are tested in triplicate and each microtiter plate includes a negative control containing plain medium. The final volume in each well is 100 μl.
100 μl of the cell suspension are added to diluted solutions of products and the cells are incubated for 7 days in an incubator at 37° C., under 8% CO2 and a moisture saturated atmosphere. Cell proliferation is determined by measuring the […] of a chromogenic substrate XTT (2,3-bis[2-methoxy-4-nitro-5-sulphophenyl]-2H-tetrazolium-5-carboxanilide) in mitochondria of viable cells.
At the end of the incubation period, 50 μl of the XTT substrate solution (1 mg/ml XTT+0.008 mg/ml phenazine methosulfate) are added to each well. After an 8 hour incubation period at 37° C. under 8% CO2 in a moisture saturated incubator, the microtiter plates are read with a spectrophotometer at 492 nm against a reference sample at 690 nm.
Results are expressed as mean value±standard deviation and plotted as a dose versus response curve. Values for a negative control composed of DH medium (mean±standard deviation) are also graphically shown.
From this dose versus response curve, 3 curve variables are computed:
Max: maximum curve amplitude and corresponding concentration
EC50: concentration corresponding to 50% of maximum amplitude
Min: lowest concentration inducing a significant proliferation corresponding to the blank±3× standard deviation value
Concentration values corresponding to EC50 and Min are determined from line segments joining different points on the curve.
If the curve has no plateau phase but an ascending configuration for the highest concentration being tested, a “>” sign is shown before Max and EC50 values.
For orientation: Tetrazolium dyes change colour on reduction, which living cells bring about.

For series [1], the system named is Limulus Amoebocyte Lysate.
Series [2] concerns predendritic cells (DC-6). In words: dendritic cell differentiation test: FITC-Dextran take-up. Format: cell-based, human. Particulars: 10 μg/ml. The protocol: The ability of products of the invention to induce maturation of predendritic cells into dendritic cells was assessed. The following parameters were measured: FITC-Dextran conjugate take-up and expression of CD83, CD86 surface markers.
Mononucleated cells of peripheral blood are isolated from buffy coats of healthy donors. Purified monocytes by adherence selection are resuspended in RPMI-1640 medium containing 10% of foetal calf serum (FCS), GM-CSF and IL-4 (10 ng/ml) at a density of 1×10^6 cells/ml. Cells are divided into Petri Dishes (10×10^6 cells per dish) and cultured for 6 days with a change to fresh medium after 3 days. Cells thus obtained are called predendritic cells (DC-6). Maturation of predendritic cells into mature dendritic cells is achieved by incubating cells with diluted solutions of the products or LPS (positive control) for 3 more days (see product section below). At day 9 (DC-9), cells are harvested and analyzed for different indicators of dendritic cell maturation: assessment of CD83, CD86 surface marker expression as well as of their ability to take up FITC-Dextran conjugate. All these parameters are analyzed by an EPICS-XL-MCL model FACS (Coulter Immunology, Hialeah, […]).
Expression of surface markers is given as % of mean fluorescence of LPS-activated cells (positive control); FITC-Dextran conjugate take-up rate is calculated based on take-up of cells maintained in basic medium and is expressed in %.
Solutions are incubated at 37° C. for 20 minutes, subjected to vigorous stirring during 3 minutes and then diluted to 100 μg/ml in RPMI-1640 culture medium and used in diluted state at concentrations ranging from 10 μg/ml to 0.03 μg/ml. Reference Product: E. coli lipopolysaccharide (LPS, DIFCO, Detroit, Mich., U.S.A.), as a 5 mg/ml stock solution in PBS. An intermediate 100 μg/ml solution is prepared in RPMI 1640 culture medium. Concentrations of dilute solutions being tested range from 1 μg/ml to 0.03 μg/ml.
In another series of experiments, all acyl dipeptide-like compounds were freeze-dried and directly redissolved into pyrogen-free water. Different products as well as LPS control are tested at a concentration of 10 μg/ml. Results are given as % of dendritic cells and mean fluorescence value for dextran phagocytosis or CD86 surface marker expression.
Immature dendritic cells (DC-6) resulting from monocyte differentiation, through the joint action of GM-CSF and IL-4, are able to incorporate FITC-Dextran conjugate. During the maturation process, cells lose their ability to incorporate the FITC-Dextran conjugate. Assays are conducted upon reaching the DC-9 differentiation stage.

The structures appear in SMILES notation. In brackets after ≈: the same amount, converted by molar mass. A value given as a limit tells only on which side of the number the result lay.

Consider `CCCCCCCCCCCC(=O)O[C@H](CCCCCCCCCCC)CC(=O)N[C@H](CC(=O)O)C(=O)NCCC[C@H](COC(=O)CCCCCNC(=O)CCC(=O)O)NC(=O)C[C@H](O)CCCCCCCCCCC` [OM-197-MC-AC-Succ, N—[(R)-3-dodecanoyloxytetradecanoyl]-D-aspartic acid, α-N-{(4R)-5-(6-succinylamidohexanoxyloxy)-4[(R)-3-hydroxy-tetradecanoylamino]pentyl}amide], for which, in the series with bone marrow stem cells, the Max amplitude is more than 1.65 O.D, the Min amplitude was found to be 0.80 O.D, the Max concentration is more than 100 µg/mL and the EC50 conc worked out at 33.7 µg/mL (≈ 31.2 µM). In the series on bone marrow stem cells, this molecule gave a Min concentration of 2.04 µg/mL. Also, in series [1], the “LAL EU/mg of product” value is given as <0.05 EU/mg of product and the “LAL ng of LPS equivalent per mg of product” value (shortened to “LAL ng … per mg of product”) is on record as <0.004 ng of LPS equivalent per mg of product.
`CCCCCCCCCCCC(=O)O[C@H](CCCCCCCCCCC)CC(=O)N[C@H](CC(=O)O)C(=O)NCCC[C@H](COC(=O)CCCCCN)NC(=O)C[C@H](O)CCCCCCCCCCC` [OM-197-MC-AC, N—[(R)-3-dodecanoyloxytetradecanoyl]-D-aspartic acid, α-N-{(4R)-5-(6-aminohexanoyloxy)-4-[(R)-3-hydroxytetradecanoylamino]pentyl}amide]: in the series on bone marrow stem cells, the Max amplitude stood at 1.62 O.D, the Min amplitude is 0.80 O.D, the Max concentration was determined as 50 µg/mL and the EC50 conc is 31.0 µg/mL (≈ 31.6 µM). In the series on bone marrow stem cells, the Min concentration was 0.92 µg/mL. In addition, the “Dextran % CD” value in series [2] (products redissolved in pyrogen-free water, % of dendritic cells) worked out at 68.3%. Besides, the “Dextran Fluorescence” value in series [2] (mean fluorescence value) is 5.2.
In the series with bone marrow stem cells, `CCCCCCCCCCCC(=O)O[C@H](CCCCCCCCCCC)CC(=O)N[C@@H](CCOP(=O)(O)O)C(=O)NCCC[C@H](COC(=O)CCCCCO)NC(=O)C[C@H](O)CCCCCCCCCCC` [OM-197-MP-AC (S, R), (3S,9R)-3-[(R)-3-dodecanoyloxytetradecanoylamino]-4-oxo-5-aza-9-[(R)-3-hydroxytetradecanoylamino]-1,10-diol 1-dihydrogenphosphate 10-(6-hydroxyhexanoate)] returned a Max amplitude of 1.22 O.D, a Min amplitude of 0.80 O.D, a Max concentration of 6.25 µg/mL and an EC50 conc of 2.62 µg/mL (≈ 2.5 µM). In the series on bone marrow stem cells, the Min concentration is 1.17 µg/mL. Also, in series [1], the “LAL EU/mg of product” value is <0.125 EU/mg of product and the “LAL ng … per mg of product” value is <0.01 ng of LPS equivalent per mg of product.
With `CCCCCCCCCCC[C@@H](O)CC(=O)N[C@H](CCCNC(=O)[C@@H](CC(=O)O)NC(C)=O)COC(=O)CCCCCN` [OM-197-N′C2-MC-AC, N-acetyl-D-aspartic acid, α-N-{(4R)-5-(6-aminohexanoyloxy)-4-[(R)-3-hydroxytetradecanoylamino]-pentyl}amide], in the series with bone marrow stem cells, the Max amplitude was 0.75 O.D, the Min amplitude is 0.80/nd O.D and the Max concentration was 1.56 µg/mL. Also, in series [1], the “LAL EU/mg of product” value is given as <0.5 EU/mg of product and the “LAL ng … per mg of product” value is listed as <0.04 ng of LPS equivalent per mg of product.
In the series with bone marrow stem cells, `CCCCCCCCCCCC(=O)O[C@H](CCCCCCCCCCC)CC(=O)N[C@H](CC(=O)O)C(=O)NCCC[C@H](COP(=O)(O)O)NC(=O)C[C@H](O)CCCCCCCCCCC` [OM-197-MC-MP, N—[(R)-3-dodecanoyloxytetradecanoyl]-D-aspartic acid, α-N-{(4R)-5-dihydroxyphosphoryloxy-4-[(R)-3-hydroxytetradecanoyl-amino]pentyl}amide] displayed a Max amplitude of more than 1.60 O.D, a Min amplitude of 0.80 O.D, a Max concentration of more than 160 µg/mL and an EC50 conc of more than 6.5 µg/mL. The molecule also yielded a Min concentration in the series on bone marrow stem cells of 0.77 µg/mL. In series [1], the “LAL EU/mg of product” value is 210.5 EU/mg of product and the “LAL ng … per mg of product” value is 16.8 ng of LPS equivalent per mg of product.
As for `CCCCCCCCCCCC(=O)O[C@H](CCCCCCCCCCC)CC(=O)N[C@H](CC(=O)O)C(=O)NCCC[C@H](COC(=O)CCCCCO)NC(=O)C[C@H](O)CCCCCCCCCCC` [OM-197-MC-FV7, N—[(R)-3-dodecanoyloxytetradecanoylamino]-D-aspartic acid, α-N-{(4R)-5-hydroxy-4-[(R)-3-hydroxytetradecanoylamino]pentyl}amide 5-O-(6-hydroxyhexanoate)], in the series with bone marrow stem cells, the Max amplitude is recorded as more than 1.83 O.D, the Min amplitude was 0.80 O.D, the Max concentration is more than 100 µg/mL and the EC50 conc is more than 33.1 µg/mL. In addition, the Min concentration in the series on bone marrow stem cells worked out at 6.58 µg/mL. Moreover, in series [1], the “LAL EU/mg of product” value was <0.05 EU/mg of product and the “LAL ng … per mg of product” value was <0.004 ng of LPS equivalent per mg of product.
In the series on bone marrow stem cells, `CCCCCCCCCCCC(=O)O[C@H](CCCCCCCCCCC)CC(=O)NC(CCOP(=O)(O)O)C(=O)NCCCC(COC(=O)CCCCCO)NC(=O)C[C@H](O)CCCCCCCCCCC` (stereo partly drawn) [OM-197-FV8, 3-[(R)-3-dodecanoyloxytetradecanoylamino]-4-oxo-5-aza-9-[(R)-3-hydroxytetradecanoylamino]-decan-1,10-diol 1-dihydrogenphosphate 10-(6-hydroxyhexanoate)] showed a Max amplitude of 1.07 O.D, a Min amplitude of 0.80 O.D, a Max concentration of 25 µg/mL and an EC50 conc of 1.8 µg/mL (≈ 1.72 µM). Further, the Min concentration in the series on bone marrow stem cells was determined as 1.24 µg/mL. In series [1], the “LAL EU/mg of product” value is 1820 EU/mg of product and the “LAL ng … per mg of product” value is 145.6 ng of LPS equivalent per mg of product.
With `CCCCCCCCCCC[C@@H](O)CC(=O)N[C@H](CCCNC(=O)[C@@H](CC(=O)O)NC(=O)C(CCCCCC)OC(=O)CCCCCCCCC)COC(=O)CCCCCN` (stereo partly drawn) [OM-197-N′(C10-20C8)-MC-AC, N-(2-decanoyloxyoctanoyl)-D-aspartic acid, α-N-{(4R)-5-(6-aminohexanoyloxy)-4-[(R)-3-hydroxytetradecanoylamino]-pentyl}amide], in the series with bone marrow stem cells, the Max amplitude came to 0.75 O.D, the Min amplitude is recorded as 0.80/nd O.D and the Max concentration came to 6.25 µg/mL. In series [1], the “LAL EU/mg of product” value is given as <0.5 EU/mg of product and the “LAL ng … per mg of product” value was <0.04 ng of LPS equivalent per mg of product.

The values above are taken from patent US8173133B2, “Acyl pseudodipeptides which carry a functionalized auxiliary arm” (OM Pharma, priority 1999, dated 2012).
